Measurements: paper PMC13198932, “Pyrazolone-based ERO1 inhibitors in ERO1-driven triple-negative breast cancer and SEPN1-related myopathy: Structure–activity relationship and therapeutic potential” (Pharmacological research, 2025)

What was measured:
[1] = biological target: T1, ERO1 in MDA-MB-231 breast cancer cells (Homo sapiens, UniProt Q96HE7); assay: ERO1 redox state by non-reducing immunoblot in MDA-MB-231 cells; type: cell-based
T1 construct: Non-reducing Immunoblot of endogenous ERO1 in lysates of vehicle-treated MDAMB231; endogenous in cells; host or cells: MDA-MB-231
T1 sequence (Q96HE7 24-468): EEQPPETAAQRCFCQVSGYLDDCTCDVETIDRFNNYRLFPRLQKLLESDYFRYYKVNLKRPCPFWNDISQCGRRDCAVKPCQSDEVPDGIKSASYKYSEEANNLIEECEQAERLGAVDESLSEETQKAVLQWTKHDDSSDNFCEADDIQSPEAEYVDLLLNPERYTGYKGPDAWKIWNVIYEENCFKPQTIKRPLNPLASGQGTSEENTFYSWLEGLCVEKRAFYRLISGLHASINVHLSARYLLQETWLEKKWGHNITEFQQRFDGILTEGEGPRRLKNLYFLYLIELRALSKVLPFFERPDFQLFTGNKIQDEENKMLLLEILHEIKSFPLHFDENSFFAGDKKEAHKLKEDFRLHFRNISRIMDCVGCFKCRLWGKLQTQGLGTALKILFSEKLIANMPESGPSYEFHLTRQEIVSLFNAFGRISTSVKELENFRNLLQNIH
Protocol: (§1) MDAMB231 and E0771 cells were maintained in Dulbecco’s Modified Eagle’s Medium supplemented with 1 % fetal bovine serum and seeded at 70 % confluency in six-well plates one day prior to the experiment. Cells were treated with DTT (10 mM) and/or ERO1A inhibitors for 1–5 h. At the time of collection, phosphate-buffered saline containing 10 mM NEM was added, and cells were incubated on ice for 10 min in lysis buffer (50 mM Tris-HCl, pH 7.4; 150 mM NaCl; 1 % Triton X-100; 0.1 % SDS; 1 % sodium deoxycholate; protease inhibitors; and 10 mM NEM). Protein concentrations were determined using the BCA assay, and equal amounts of protein were separated by non-reducing SDS-PAGE followed by immunoblotting with a polyclonal antibody against ERO1A [33].

[2] = design: method as in PMID 37132383; conditions: cited from earlier work
E0771 cells = assay: MTS assay of metabolic activity in E0771 cells; type: cell-based, murine; conditions: E0771, dose-response, 24 h, 1 % FBS
Protocol: Six thousand cells (MDAMB231 and E0771) per well were seeded in 96-well plates and cultured in medium containing 1 % FBS. Cells were treated with varying concentrations of compounds and, after 24 h, incubated with MTS [3-(4,5-dimethylthiazol-2-yl)-5-(3-carboxymethoxyphenyl)-2-(4 sulfophenyl)2Htetrazolium]and PMS (phenazine methosulfate), following the instructions of the CellTiter 96® Aqueous Non-Radioactive Cell Proliferation Assay (Promega). Measurements were performed using a TECAN Infinite M200 plate reader with […] at 490 nm.

ERO1 in E0771 cells = biological target: T2, ERO1 in E0771 cells (Mus musculus, UniProt Q8R180); assay: ERO1 redox state by non-reducing immunoblot in E0771 cells; type: cell-based, murine; conditions: E0771, Fig. 4F
T2 construct: endogenous in cells; host or cells: E0771
T2 sequence (Q8R180 24-464): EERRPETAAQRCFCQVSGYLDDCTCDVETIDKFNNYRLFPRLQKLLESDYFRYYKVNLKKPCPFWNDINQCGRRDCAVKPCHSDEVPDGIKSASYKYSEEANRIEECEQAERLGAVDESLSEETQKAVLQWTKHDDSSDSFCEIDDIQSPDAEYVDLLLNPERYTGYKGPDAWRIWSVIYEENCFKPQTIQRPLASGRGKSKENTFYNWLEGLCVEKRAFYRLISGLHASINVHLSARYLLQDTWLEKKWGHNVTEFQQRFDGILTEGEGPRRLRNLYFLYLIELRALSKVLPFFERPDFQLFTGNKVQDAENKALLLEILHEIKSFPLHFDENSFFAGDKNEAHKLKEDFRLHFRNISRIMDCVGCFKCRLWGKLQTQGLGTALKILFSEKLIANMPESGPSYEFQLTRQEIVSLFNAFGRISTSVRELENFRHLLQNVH
Protocol: as §1

[3] = biological target: T3, ERO1 in WT and SEPN1 KO myotubes (Mus musculus, UniProt Q8R180); assay: ERO1 redox state by non-reducing immunoblot in WT and SEPN1 KO myotubes; type: cell-based, mice; conditions: 3 h treatment
T3 construct: endogenous in cells; host or cells: primary myotubes from WT and SEPN1 KO C57BL/6 mice
T3 sequence (Q8R180 24-464): T2 sequence (Q8R180 24-464)
Protocol: Muscle stem cells were isolated from muscles of 1-month-old wild-type (WT) and SEPN1 knockout (KO) mice using a tissue dissociation protocol with the gentleMACS™ Octo Dissociator with Heaters (Miltenyi Biotec, Bergisch Gladbach, Germany), followed by magnetic depletion. To generate myotubes, cells were cultured on Matrigel-coated Ibidi μ-Slide 8 well chambers (Cat. No. 80826, Ibidi GmbH, Gräfelfing, Germany) in DMEM (EuroClone, Pero, Milan, Italy) supplemented with 20 % fetal bovine serum (EuroClone), 3 % chick embryo extract (Cat. 11485015, Fisher Scientific SAS), 10 ng/mL basic fibroblast growth factor (Cat. 13256029, Life Technologies Europe BV), 1 % GlutaMAX (Gibco; Thermo Fisher Scientific, Waltham, MA, USA), and 1 % penicillin-streptomycin (EuroClone).
After 48 h of proliferation, cells were cultured for an additional 2 days in medium containing 2 % horse serum (EuroClone) to induce differentiation, then harvested for analysis. For ERO1 redox state, cells were treated for 3 h with either EN460 or I29, harvested and followed by a non-reducing ERO1 Immunoblot.

WT and SEPN1 KO myotubes = assay: TMRM staining of mitochondrial membrane potential in WT and SEPN1 KO myotubes; type: cell-based, mice; conditions: 1–5 μM, 16 h treatment
Protocol: Muscle stem cells were isolated from muscles of 1-month-old wild-type (WT) and SEPN1 knockout (KO) mice using a tissue dissociation protocol with the gentleMACS™ Octo Dissociator with Heaters (Miltenyi Biotec, Bergisch Gladbach, Germany), followed by magnetic depletion. […]
After 16 h of treatment with EN460 or I29 in differentiation medium, the culture medium was removed and replaced with the TMRM staining solution for the assessment of mitochondrial membrane potential. […] TMRM fluorescence was acquired at λexc 561 nm / λem 595 nm by a Nikon A1 confocal system equipped with an Okolab stage incubator (CO2 5 %, 37°C, 90 % humidity) immediately after TMRM and over a 10-minute baseline period with 65 s time interval. […] Data were analyzed using ImageJ. Briefly, background noise was set to NaN and the remaining signal quantified as mean pixel gray values. Data were expressed as ΔF/F0 (F0= mean of baseline signal).

Structure (SMILES) | ERO1 reduction (redox state) ([1]; MDA-MB-231, 20 μM, Fig. Sup. 2A) | ERO1 reduction ([1]; MDA-MB-231, 20 μM, dose-response 1–20 μM, Fig. 4B) | concentration achieving complete ERO1 reduction ([1]; MDA-MB-231, dose-response 5–20 μM, Fig. Sup. 2B) [µM] | aqueous solubility [2] | metabolic activity (MTS assay) (E0771 cells) | ERO1 reduction compared with EN460 ([1]; MDAMB231, Fig. 4D) | ERO1 redox assay compared with EN460 (ERO1 in E0771 cells) | reduced state of ERO1 compared with EN460 [3] | TMRM fluorescence (mitochondrial membrane potential) (WT and SEPN1 KO myotubes)
O=C(O)c1cc(N2N=C(C(F)(F)F)/C(=C\c3ccc(-c4ccccc4)o3)C2=O)ccc1Cl [EN460, reference compound] | efficiently reduced ERO1 | near-complete reduction of ERO1 | 15 | poor aqueous solubility | – | – | – | – | –
O=C1/C(=C/c2ccc(-c3ccccc3)o2)C(C(F)(F)F)=NN1c1ccccc1F [I29] | – | – | – | – | superior efficacy of I29 over EN460 | reduced more efficiently ERO1 | superior efficacy of I29 over EN460 | more effective than EN460 | significant increase in TMRM fluorescence
